Measurements reported in patent US9604936B2, “Besylate salt of a BTK inhibitor” (Celgene Avilomics Research, Inc., priority 2010, dated 2017).
Like-named read-outs stand apart in the source and are kept apart here.

Key:
B-cell proliferation [1] = settings: in vivo; cited from earlier work
BTK = BTK (Homo sapiens, UniProt Q06187); settings: enzymatic and cellular assays; cited from earlier work
B-cell proliferation [2] = settings: in vitro; cited from earlier work
[3] = Solubility of Compound 2 by manual dilution combined with visual observation; format: physicochemical; settings: thermodynamic from solid
Procedure: Solubility of Compound 2, at room temperature, was measured in seventeen solvents and two solvent mixtures by manual dilution combined with visual observation.

Chain of BTK (Q06187 whole entry, species assumed): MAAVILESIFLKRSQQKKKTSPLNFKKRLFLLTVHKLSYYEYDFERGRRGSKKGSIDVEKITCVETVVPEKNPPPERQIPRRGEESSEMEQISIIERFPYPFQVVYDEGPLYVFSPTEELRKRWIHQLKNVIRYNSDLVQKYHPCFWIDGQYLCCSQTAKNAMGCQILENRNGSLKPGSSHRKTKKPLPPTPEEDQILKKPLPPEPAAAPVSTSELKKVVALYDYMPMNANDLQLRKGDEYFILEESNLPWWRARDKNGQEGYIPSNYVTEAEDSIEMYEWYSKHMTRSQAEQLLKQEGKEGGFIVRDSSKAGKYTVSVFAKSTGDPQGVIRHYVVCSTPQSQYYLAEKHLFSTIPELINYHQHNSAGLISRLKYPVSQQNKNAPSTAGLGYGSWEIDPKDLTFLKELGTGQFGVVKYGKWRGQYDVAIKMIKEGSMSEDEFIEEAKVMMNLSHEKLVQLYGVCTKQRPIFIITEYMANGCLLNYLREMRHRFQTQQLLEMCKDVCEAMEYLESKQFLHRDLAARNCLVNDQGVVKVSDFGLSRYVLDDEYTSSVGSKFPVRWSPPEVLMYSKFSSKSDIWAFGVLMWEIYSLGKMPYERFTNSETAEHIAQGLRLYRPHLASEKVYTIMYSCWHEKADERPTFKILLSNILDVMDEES

C=CC(=O)Nc1cccc(Nc2nc(Nc3ccc(OCCOC)cc3)ncc2F)c1 [Compound 1, N-(3-(5-fluoro-2-(4-(2-methoxyethoxy)phenylamino)pyrimidin-4-ylamino)phenyl)acrylamide]
inhibition of B-cell proliferation (B-cell proliferation [1]): inhibit B-cell proliferation | inhibition of BTK (BTK): covalent, irreversible inhibition of BTK | inhibition of B-cell proliferation (B-cell proliferation [2]): inhibit B-cell proliferation

C=CC(=O)Nc1cccc(Nc2nc(Nc3ccc(OCCOC)cc3)ncc2F)c1.O=S(=O)(O)c1ccccc1 [Compound 2]
solubility ([3]; aqueous with cosolvent or surfactant or cyclodextrin, 1:1 DMF:H2O, room temperature): 71000 to 106000 µg/mL | solubility ([3]; aqueous with cosolvent or surfactant or cyclodextrin, 3:7 DMF:H2O, room temperature): 16000 to 18000 µg/mL | solubility ([3]; organic solvent or mixture, 1,4-dioxane, room temperature): < 1000 µg/mL | solubility ([3]; organic solvent or mixture, Acetone, room temperature): ~2500 µg/mL | solubility ([3]; organic solvent or mixture, Anisole, room temperature): < 1000 µg/mL | solubility ([3]; organic solvent or mixture, Benzyl alcohol, room temperature): 97000 to 194000 µg/mL | solubility ([3]; organic solvent or mixture, CH2Cl2, room temperature): < 1000 µg/mL | solubility ([3]; organic solvent or mixture, CH3CN, room temperature): ~2000 µg/mL | solubility ([3]; organic solvent or mixture, DMF, room temperature): > 184000 µg/mL | solubility ([3]; organic solvent or mixture, Ethanol, room temperature): ~2000 µg/mL | solubility ([3]; organic solvent or mixture, Ethyl Acetate, room temperature): < 1000 µg/mL | solubility ([3]; organic solvent or mixture, Isopropanol, room temperature): < 1000 µg/mL | solubility ([3]; organic solvent or mixture, Methanol, room temperature): 26000 to 29000 µg/mL | solubility ([3]; organic solvent or mixture, Pyridine, room temperature): > 234000 µg/mL | solubility ([3]; organic solvent or mixture, TBME, room temperature): < 1000 µg/mL | solubility ([3]; organic solvent or mixture, THF, room temperature): ~2000 µg/mL | solubility ([3]; organic solvent or mixture, Toluene, room temperature): < 1000 µg/mL | solubility ([3]; Water, room temperature): < 1000 µg/mL
